Measurements taken from US20130252988A1, “COMPOSITIONS AND METHODS FOR TREATING MYELOFIBROSIS” (TARGEGEN, INC., priority 2010, published 2013).
Structures can show the parent of a compound that is named as a salt. Where two headings read alike, the source gives them in different places.

Test system: subjects with myelofibrosis
Conditions: for Discontinuation because of adverse event, number of subjects / Discontinued, subjects n (%): Table 1
[1] = Example 1, patients who started at =680 mg
[2] = Example 1, started at =680 mg, 24 patients not requiring RBC transfusions at baseline
[3] = MTD cohort, at least possibly related
[4] = Table 3: treatment-emergent hematologic toxicity, MTD subjects (N = 40)
[5] = Table 4: treatment-emergent non-hematologic AE, MTD subjects (N = 40)
[6] = Table 5: treatment-emergent non-hematologic laboratory finding, MTD subjects (N = 40)

## Cc1cnc(Nc2ccc(OCCN3CCCC3)cc2)nc1Nc1cccc(S(=O)(=O)NC(C)(C)C)c1 [TG101348, N-tert-butyl-3-[(5-methyl-2-{[4-(2-pyrrolidin-1-ylethoxy)phenyl]amino}pyrimidin-4-yl)amino]benzenesulfonamide dihydrochloride monohydrate]
800 mg/day
  Patients who experienced DLT: 2 of 6
Eight of 43 subjects
  Subjects who discontinued treatment during the extension study: 19%
Example 1, 18 of 59 patients, median follow-up 12 weeks
  Patients who discontinued treatment: 31%
[1]
  Asymptomatic hyperlipasemia, patients: 33%
  Gr1/2 serum creatinine elevation, patients: 38%
  Gr3 diarrhea, number of patients: 3
  Gr3 nausea, number of patients: 1
  Gr3 neutropenia, patients: 15%
  Gr3 thrombocytopenia, patients: 20%
  Gr3 vomiting, number of patients: 1
  Gr4 neutropenia, patients: 0%
  Gr4 thrombocytopenia, patients: 10%
  Grade 1/2 transaminitis, patients: 38%
[2]
  Grade 3 anemia, patients: 42%
  Grade 4 anemia, patients: 8%
Example 1 background
  Grade 3/4 neutropenia, patients: 14%
  Grade 3/4 thrombocytopenia, patients: 25%
Example 2 conclusions
  Long-term toxicities: no long-term toxicities
Fifteen of 59 subjects
  Subjects who discontinued treatment during the first 6 cycles: 25%
MF-TG101348-001, subject 101-040, starting 680, termination 520 mg/day, 24 days, possibly related
  Reason for discontinuation of study: Adverse events - diarrhea (grade 3; possibly
MF-TG101348-001, subject 102-019, starting dose 520, dose at termination 520 mg/day, 42 days of treatment, probably related
  Reason for discontinuation of study: Adverse event - neutropenia (grade 3;
MF-TG101348-001, subject 104-027, starting 800, termination 680 mg/day, 77 days, possibly related
  Reason for discontinuation of study: Adverse event - thrombocytopenia (grade 4;
MF-TG101348-001, subject 104-029, starting 680, termination 680 mg/day, 44 days, not related, also embolic stroke (grade 3; not related)
  Reason for discontinuation of study: Adverse event - endocarditis (grade 3; not
MF-TG101348-001, subject 105-059, starting 680, termination 360 mg/day, 27 days, possibly related
  Reason for discontinuation of study: Adverse event - cardiac arrest (grade 5;
MF-TG101348-001, subject 106-028, starting 800, termination 520 mg/day, 44 days, possibly related
  Reason for discontinuation of study: Adverse event - thrombocytopenia (grade 4;
MF-TG101348-001 and -002
  Subjects with serious adverse events considered at least possibly related to TG101348: 8 subjects
MF-TG101348-002, subject 101-047, starting 680, termination 320 mg/day, cumulative 233 days, possibly related
  Reason for discontinuation of study: Adverse event - elevated creatinine (grade 2;
MF-TG101348-002, subject 104-015, starting 360, termination 520 mg/day, cumulative 257 days, possibly related
  Reason for discontinuation of study: Adverse event - depression (grade 3;
MF-TG101348-002, subject 104-017, starting 520, termination 200 mg/day, cumulative 309 days
  Reason for discontinuation of study: Investigator discretion - disease progression
MF-TG101348-002, subject 105-013, starting 240, termination 360 mg/day, cumulative 321 days, probably related
  Reason for discontinuation of study: Adverse event - thrombocytopenia (grade 4;
MTD cohort
  Grades 3/4 asymptomatic increase in ALT, subjects: 8%
  Grades 3/4 asymptomatic increase in AST, subjects: 3%
  Grades 3/4 asymptomatic increase in serum lipase, subjects: 15%
  Grades 3/4 increase in alkaline phosphatase, subjects: 0%
  Grades 3/4 increase in creatinine, subjects: 0%
MTD cohort (n=40), 28 subjects
  Subjects who required dose-reduction during the first 6 cycles: 70%
[3]
  Grade 3 diarrhea, subjects: 13%
  Grade 3 nausea, subjects: 5%
  Grade 3 vomiting, subjects: 3%
MTD cohort, first 6 cycles
  Dose-reduction, primary reason ALT elevation: 7.5%
  Dose-reduction, primary reason amylase/lipase elevation: 10%
  Dose-reduction, primary reason cytopenia(s): 20%
  Dose-reduction, primary reason gastrointestinal adverse events: 12.5%
  Dose-reduction, primary reason investigator discretion: 7.5%
  Dose-reduction, primary reason other adverse events: 12.5%
Phase I study, myelofibrosis
  Maximum tolerated dose (MTD): 680 mg
MTD (40 enrolled)
  Discontinuation because of adverse event, number of subjects: 5
MTD (initiated at 680 or 800 mg/day; 40 enrolled)
  Discontinued, subjects n (%): 11 (28%)
Overall (59 enrolled)
  Discontinuation because of adverse event, number of subjects: 6
  Discontinued, subjects n (%): 15 (25%)
Table 3: MTD subjects not transfusion dependent at baseline (N = 24), transfusion on at least 2 occasions for Hb <10 g/dL
  Anemia: New Transfusion Requirement on Study, subjects n (%): 16 (67%)
[4]
  Neutropenia Grade 3, subjects n (%): 6 (15%)
  Neutropenia Grade 4, subjects n (%): 0
  Thrombocytopenia Grade 3, subjects n (%): 8 (20%)
  Thrombocytopenia Grade 4, subjects n (%): 5 (13%)
[5]
  Abdominal pain Grade 1, subjects n (%): 5 (13%)
  Abdominal pain Grade 2, subjects n (%): 0
  Abdominal pain Grade 3, subjects n (%): 0
  Abdominal pain Grade 4, subjects n (%): 0
  Anorexia Grade 1, subjects n (%): 7 (18%)
  Anorexia Grade 2, subjects n (%): 0
  Anorexia Grade 3, subjects n (%): 1 (3%)
  Anorexia Grade 4, subjects n (%): 0
  Constipation Grade 1, subjects n (%): 6 (15%)
  Constipation Grade 2, subjects n (%): 1 (3%)
  Constipation Grade 3, subjects n (%): 0
  Constipation Grade 4, subjects n (%): 0
  Contusion Grade 1, subjects n (%): 5 (13%)
  Contusion Grade 2, subjects n (%): 0
  Contusion Grade 3, subjects n (%): 0
  Contusion Grade 4, subjects n (%): 0
  Diarrhea Grade 1, subjects n (%): 21 (53%)
  Diarrhea Grade 2, subjects n (%): 4 (10%)
  Diarrhea Grade 3, subjects n (%): 5 (13%)
  Diarrhea Grade 4, subjects n (%): 0
  Edema peripheral Grade 1, subjects n (%): 7 (18%)
  Edema peripheral Grade 2, subjects n (%): 1 (3%)
  Edema peripheral Grade 3, subjects n (%): 0
  Edema peripheral Grade 4, subjects n (%): 0
  Fatigue Grade 1, subjects n (%): 2 (5%)
  Fatigue Grade 2, subjects n (%): 3 (8%)
  Fatigue Grade 3, subjects n (%): 1 (3%)
  Fatigue Grade 4, subjects n (%): 0
  Headache Grade 1, subjects n (%): 4 (10%)
  Headache Grade 2, subjects n (%): 1 (3%)
  Headache Grade 3, subjects n (%): 0
  Headache Grade 4, subjects n (%): 0
  Nausea Grade 1, subjects n (%): 20 (50%)
  Nausea Grade 2, subjects n (%): 6 (15%)
  Nausea Grade 3, subjects n (%): 2 (5%)
  Nausea Grade 4, subjects n (%): 0
  Proteinuria Grade 1, subjects n (%): 2 (5%)
  Proteinuria Grade 2, subjects n (%): 3 (8%)
  Proteinuria Grade 3, subjects n (%): 0
  Proteinuria Grade 4, subjects n (%): 0
  Vomiting Grade 1, subjects n (%): 20 (50%)
  Vomiting Grade 2, subjects n (%): 7 (18%)
  Vomiting Grade 3, subjects n (%): 1 (3%)
  Vomiting Grade 4, subjects n (%): 0
[6]
  ALT increased Grade 2, subjects n (%): 8 (20%)
  ALT increased Grade 3, subjects n (%): 2 (5%)
  ALT increased Grade 4, subjects n (%): 0
  AST increased Grade 2, subjects n (%): 5 (13%)
  AST increased Grade 3, subjects n (%): 1 (3%)
  AST increased Grade 4, subjects n (%): 0
  Creatinine increased Grade 2, subjects n (%): 11 (28%)
  Creatinine increased Grade 3, subjects n (%): 0
  Creatinine increased Grade 4, subjects n (%): 0
  Hyperamylasemia Grade 2, subjects n (%): 0
  Hyperamylasemia Grade 3, subjects n (%): 1 (3%)
  Hyperamylasemia Grade 4, subjects n (%): 1 (3%)
  Hyperkalemia Grade 2, subjects n (%): 3 (8%)
  Hyperkalemia Grade 3, subjects n (%): 2 (5%)
